# Molecular target: IDO (Homo sapiens, UniProt P14902)
# Experiment: LLE_IDO_ABS_DR (IDO assay)
# IDO, sequence (P14902 whole entry): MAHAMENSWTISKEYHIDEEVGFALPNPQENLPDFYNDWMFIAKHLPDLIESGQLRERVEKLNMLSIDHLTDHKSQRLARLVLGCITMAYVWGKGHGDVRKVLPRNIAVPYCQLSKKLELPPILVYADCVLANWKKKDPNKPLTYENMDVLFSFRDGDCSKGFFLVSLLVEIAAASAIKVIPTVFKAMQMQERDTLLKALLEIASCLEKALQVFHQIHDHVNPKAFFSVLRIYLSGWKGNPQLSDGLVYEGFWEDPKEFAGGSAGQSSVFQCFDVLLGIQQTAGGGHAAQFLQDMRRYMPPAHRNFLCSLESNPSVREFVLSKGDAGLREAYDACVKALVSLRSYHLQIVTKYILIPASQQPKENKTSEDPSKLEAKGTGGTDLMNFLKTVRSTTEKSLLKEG
row,SMILES,IC50 [nM]
1,"CC(C)CN(CCC1CC1)c1ccc(-c2ccccc2-c2nnn[nH]2)cc1NC(=O)Nc1ccccc1F [Example 133, 1-(4-((2-cyclopropylethyl) (isobutyl)amino)-2′-(1H-tetrazol-5-yl)biphenyl-3-yl)-3-(2-fluorophenyl)urea]",6.45
2,"CC(C)CN(CCC1CC1)c1ccc(-c2ccccc2C(=O)O)cc1NC(=O)Nc1ccccc1F [Example 134, 4′-((2-cyclopropylethyl) (isobutyl)amino)-3′-(3-(2-fluorophenyl)ureido)biphenyl-2-carboxylic acid]",30
3,"CC(C)CN(CCC1CC1)c1ccc(-c2cc(F)ccc2C(=O)O)cc1NC(=O)Nc1ccccc1F [Example 135, 4′-((2-cyclopropylethyl) (isobutyl)amino)-5-fluoro-3′-(3-(2-fluorophenyl)ureido)biphenyl-2-carboxylic acid]",20
4,"CC(C)CN(CCC1CC1)c1ccc(-c2sccc2C(=O)O)cc1NC(=O)Nc1ccccc1F [Example 136, 2-(4-((2-cyclopropylethyl) (isobutyl)amino)-3-(3-(2-fluorophenyl)ureido)phenyl)thiophene-3-carboxylic acid]",70
5,"CC(C)CN(CC(C)C)c1ccc(-c2ccccc2-c2nnn[nH]2)cc1NC(=O)Nc1ccc(F)cc1F [Example 137, 1-(2,4-difluorophenyl)-3-(4-(diisobutylamino)-2′-(1H-tetrazol-5-yl)biphenyl-3-yl)urea]",5.24
6,"CC(C)CN(CC(C)C)c1ccc(-c2ccccc2C(=O)O)cc1NC(=O)Nc1ccc(F)cc1F [Example 138, 3′-(3-(2,4-difluorophenyl)ureido)-4′-(diisobutylamino) biphenyl-2-carboxylic acid]",6.24
7,"CC(C)CN(CC(C)C)c1ccc(-c2ccccc2-c2nnn[nH]2)cc1NC(=O)NC1CC1 [Example 139, 1-cyclopropyl-3-(4-(diisobutylamino)-2′-(1H-tetrazol-5-yl)biphenyl-3-yl)urea]",1980
8,"CC(C)CN(CC(C)C)c1ccc(-c2ccccc2-c2nnn[nH]2)cc1NC(=O)NC1CCCCC1 [Example 140, 1-cyclohexyl-3-(4-(diisobutylamino)-2′-(1H-tetrazol-5-yl)biphenyl-3-yl)urea]",2960
9,"CC(C)CN(CC(C)C)c1ccc(-c2ccccc2-c2nnn[nH]2)cc1NC(=O)NCC(C)(C)C [Example 141, 1-(4-(diisobutylamino)-2′-(1H-tetrazol-5-yl)biphenyl-3-yl)-3-neopentylurea]",430
10,"CC(C)CN(CC(C)C)c1ccc(-c2ccccc2-c2nnn[nH]2)cc1NC(=O)NCC1CC1 [Example 142, 1-(cyclopropylmethyl)-3-(4-(diisobutylamino)-2′-(1H-tetrazol-5-yl)biphenyl-3-yl)urea]",950
11,"CC(C)CN(CC(C)C)c1ccc(-c2ccccc2-c2nnn[nH]2)cc1NC(=O)Nc1ccc2ncsc2c1 [Example 143, 1-(benzo[d]thiazol-6-yl)-3-(4-(diisobutylamino)-2′-(1H-tetrazol-5-yl)biphenyl-3-yl)urea]",150
12,"COC(=O)c1cnc(NC(=O)Nc2cc(-c3ccccc3-c3nnn[nH]3)ccc2N(CC(C)C)CC(C)C)s1 [Example 144, methyl 2-(3-(4-(diisobutylamino)-2′-(1H-tetrazol-5-yl)biphenyl-3-yl)ureido)thiazole-5-carboxylate]",10
13,"CC(C)CN(CC(C)C)c1ccc(-c2ccccc2-c2nnn[nH]2)cc1NC(=O)Nc1nncs1 [Example 145, 1-(4-(diisobutylamino)-2′-(1H-tetrazol-5-yl)biphenyl-3-yl)-3-(1,3,4-thiadiazol-2-yl)urea]",80
14,"CC(C)CN(CC(C)C)c1ccc(-c2cc(F)ccc2C(=O)O)cc1NC(=O)Nc1ccc(F)cc1F [Example 146, 3′-(3-(2,4-difluorophenyl)ureido)-4′-(diisobutylamino)-5-fluorobiphenyl-2-carboxylic acid]",10
15,"Cc1ccc(NC(=O)Nc2cc(-c3ccccc3-c3nnn[nH]3)ccc2N(CC(C)C)C(C)C)cc1 [Example 147, 1-(4-(isobutyl(isopropyl)amino)-2′-(1H-tetrazol-5-yl)biphenyl-3-yl)-3-p-tolylurea]",10
16,"Cc1ccc(NC(=O)Nc2cc(-c3ccccc3C(=O)O)ccc2N(CC(C)C)C(C)C)cc1 [Example 148, 4′-(isobutyl(isopropyl)amino)-3′-(3-p-tolylureido)biphenyl-2-carboxylic acid]",40
17,"Cc1ccc(NC(=O)Nc2cc(-c3cc(F)ccc3C(=O)O)ccc2N(CC(C)C)C(C)C)cc1 [Example 149, 5-fluoro-4′-(isobutyl(isopropyl)amino)-3′-(3-p-tolylureido)biphenyl-2-carboxylic acid]",60
18,"Cc1ccc(NC(=O)Nc2cc(-c3cnccc3C(=O)O)ccc2N(CC(C)C)CC(C)C)cc1 [Example 151, 3-(4-(diisobutylamino)-3-(3-p-tolylureido)phenyl) isonicotinic acid]",4620
19,"Cc1ccc(NC(=O)Nc2cc(-c3ccoc3C(=O)O)ccc2N(CC(C)C)CC(C)C)cc1 [Example 152, 3-(4-(diisobutylamino)-3-(3-p-tolylureido)phenyl)furan-2-carboxylic acid]",770
20,"CC(C)CN(c1ccc(-c2ccccc2-c2nnn[nH]2)cc1NC(=O)Nc1ccccc1F)C(C)C [Example 153, 1-(2-fluorophenyl)-3-(4-(isobutyl (isopropyl)amino)-2′-(1H-tetrazol-5-yl)biphenyl-3-yl)urea]",5.16
21,"CC(C)CN(c1ccc(-c2ccccc2C(=O)O)cc1NC(=O)Nc1ccccc1F)C(C)C [Example 154, 3′-(3-(2-fluorophenyl)ureido)-4′-(isobutyl(isopropyl)amino)biphenyl-2-carboxylic acid]",30
22,"CC(C)CN(c1ccc(-c2cc(F)ccc2C(=O)O)cc1NC(=O)Nc1ccccc1F)C(C)C [Example 155, 5-fluoro-3′-(3-(2-fluorophenyl)ureido)-4′-(isobutyl(isopropyl)amino)biphenyl-2-carboxylic acid]",40
23,"CC(C)CN(c1ccc(-c2ccccc2-c2nnn[nH]2)cc1NC(=O)Nc1ccc(F)cc1F)C(C)C [Example 156, 1-(2,4-difluorophenyl)-3-(4-(isobutyl (isopropyl)amino)-2′-(1H-tetrazol-5-yl)biphenyl-3-yl)urea]",7.45
24,"CC(C)CN(c1ccc(-c2ccccc2C(=O)O)cc1NC(=O)Nc1ccc(F)cc1F)C(C)C [Example 157, 3′-(3-(2,4-difluorophenyl)ureido)-4′-(isobutyl(isopropyl)amino)biphenyl-2-carboxylic acid]",20
25,"CC(C)CN(c1ccc(-c2cc(F)ccc2C(=O)O)cc1NC(=O)Nc1ccc(F)cc1F)C(C)C [Example 158, 3′-(3-(2,4-difluorophenyl)ureido)-5-fluoro-4′-(isobutyl(isopropyl)amino)biphenyl-2-carboxylic acid]",30
26,"Cc1ccc(NC(=O)Nc2cc(-c3ccncc3C(=O)O)ccc2N(CC(C)C)CC(C)C)cc1 [Example 159, 4-(4-(diisobutylamino)-3-(3-p-tolylureido)phenyl) nicotinic acid]",980
27,"COc1ccc(C(=O)O)c(-c2ccc(N(CC(C)C)CC(C)C)c(NC(=O)Nc3ccc(F)cc3F)c2)c1 [Example 160, 3′-(3-(2,4-difluorophenyl)ureido)-4′-(diisobutylamino)-5-methoxybiphenyl-2-carboxylic acid]",190

# From patent publication US9758492B2, “IDO inhibitors” (Bristol-Myers Squibb Company, priority 2013, dated 2017)
